What was measured:
[1] = biological target: T1, human recombinant adrenergic α2B receptor (Homo sapiens, UniProt P18089); test: Radioligand binding, adrenergic α2B receptor ([3H]Rauwolscine); settings: 0.1 μM compound, CHO-K1 cells, read-out: Percentage inhibition of ligand binding, Adrenergic α2B
T1 construct: expressed in transfected cells; host or cells: CHO-K1
T1 sequence (P18089 1-450): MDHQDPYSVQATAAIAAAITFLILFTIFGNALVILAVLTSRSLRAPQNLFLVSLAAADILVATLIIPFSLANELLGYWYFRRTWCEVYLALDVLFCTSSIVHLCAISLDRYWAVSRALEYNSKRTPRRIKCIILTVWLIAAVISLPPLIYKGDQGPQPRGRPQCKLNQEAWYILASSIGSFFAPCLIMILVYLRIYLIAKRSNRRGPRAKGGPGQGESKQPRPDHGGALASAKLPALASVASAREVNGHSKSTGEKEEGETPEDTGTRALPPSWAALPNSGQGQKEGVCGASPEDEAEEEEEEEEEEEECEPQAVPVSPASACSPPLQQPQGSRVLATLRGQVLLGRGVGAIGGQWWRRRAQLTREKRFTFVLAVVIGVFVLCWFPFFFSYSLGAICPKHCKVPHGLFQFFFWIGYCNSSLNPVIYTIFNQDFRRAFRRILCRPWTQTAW
Method in brief: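 Percent inhibition of specific [3H]Rauwolscine (2.5 nM) binding, compounds at ≤1 μM, 1% DMSO vehicle, 10 μM prazosin defining nonspecific. Receptor: human α2B expressed in CHO-K1 cells, 60 min incubation at 25 °C in Tris-HCl pH 7.4 buffer (MgCl2, EDTA, BSA); filtered, washed, counted.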

[2] = biological target: T2, rat adrenergic α1B receptor (Rattus norvegicus, UniProt P15823); test: Radioligand binding, adrenergic α1B receptor ([3H]Prazosin); settings: 0.1 μM compound, Wistar rat liver, read-out: Percentage inhibition of ligand binding, Adrenergic α1B
T2 construct: rat adrenergic α1B receptor obtained from Wistar Rat liver; from tissue; host or cells: Wistar rat liver
T2 sequence (P15823 1-515): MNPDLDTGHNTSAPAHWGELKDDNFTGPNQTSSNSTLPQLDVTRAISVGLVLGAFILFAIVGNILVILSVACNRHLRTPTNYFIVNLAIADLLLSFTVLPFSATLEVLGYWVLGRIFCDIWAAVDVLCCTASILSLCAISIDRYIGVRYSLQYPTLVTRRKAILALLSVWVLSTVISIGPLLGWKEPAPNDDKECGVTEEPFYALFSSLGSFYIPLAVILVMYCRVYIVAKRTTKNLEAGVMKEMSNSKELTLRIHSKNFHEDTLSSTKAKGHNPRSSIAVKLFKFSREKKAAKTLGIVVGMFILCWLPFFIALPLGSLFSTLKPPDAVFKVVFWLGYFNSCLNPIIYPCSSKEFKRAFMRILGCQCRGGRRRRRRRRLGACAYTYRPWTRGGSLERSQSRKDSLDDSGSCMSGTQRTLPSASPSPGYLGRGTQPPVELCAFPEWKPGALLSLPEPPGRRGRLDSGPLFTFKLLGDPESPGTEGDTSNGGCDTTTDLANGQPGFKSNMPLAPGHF
Method in brief: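 Wistar rat liver α1B receptor preparation incubated with 0.25 nM [3H]prazosin and compound for 60 min at 25° C in 50 mM Tris-HCl pH 7.4, 0.5 mM EDTA; nonspecific binding defined with 10 μM phentolamine.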

[3] = biological target: T3, human recombinant adrenergic α1D receptor (Homo sapiens, UniProt P25100); test: Radioligand binding, adrenergic α1D receptor ([3H]Prazosin); settings: 0.1 μM compound; HEK-293 cells; 0.6 nM [3H]Prazosin; read-out: Percentage inhibition of ligand binding, Adrenergic α1D
T3 construct: expressed in transfected cells; host or cells: HEK-293
T3 sequence (P25100 1-572): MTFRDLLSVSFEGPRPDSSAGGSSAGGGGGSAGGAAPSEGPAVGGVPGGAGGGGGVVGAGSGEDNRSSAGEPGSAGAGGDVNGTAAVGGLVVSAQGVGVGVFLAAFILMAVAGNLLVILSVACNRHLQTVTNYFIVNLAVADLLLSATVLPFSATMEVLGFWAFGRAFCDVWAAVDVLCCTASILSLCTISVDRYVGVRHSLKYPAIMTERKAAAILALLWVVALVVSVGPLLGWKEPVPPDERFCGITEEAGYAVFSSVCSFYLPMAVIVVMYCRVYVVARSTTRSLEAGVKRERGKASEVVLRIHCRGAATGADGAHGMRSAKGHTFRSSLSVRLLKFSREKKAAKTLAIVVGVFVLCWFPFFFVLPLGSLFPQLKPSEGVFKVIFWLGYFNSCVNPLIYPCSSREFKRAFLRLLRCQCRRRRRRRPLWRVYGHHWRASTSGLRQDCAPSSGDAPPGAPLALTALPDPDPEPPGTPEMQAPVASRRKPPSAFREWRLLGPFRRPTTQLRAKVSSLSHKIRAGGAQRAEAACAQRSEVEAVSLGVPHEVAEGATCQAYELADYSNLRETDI
Method: Compounds were incubated with 0.6 nM [3H]Prazosin for 60 min at 25° C. Non-specific binding was estimated in the presence of 10 μM phentolamine. Receptor proteins were filtered and washed, the filters were then counted to determine [3H]Prazosin specifically bound. Compounds were screened at 1 μM or lower, using 1% DMSO as vehicle. Biochemical assay results are presented as the percent inhibition of specific binding in Table 2.

[4] = biological target: T4, human recombinant adrenergic α2A receptor (Homo sapiens, UniProt P08913); test: Radioligand binding, adrenergic α2A receptor ([3H]MK-912); settings: 0.1 μM compound; Sf9 cells; 1 nM [3H]MK-912; read-out: Percentage inhibition of ligand binding, Adrenergic α2A
T4 construct: expressed in transfected cells; host or cells: insect Sf9 cells
T4 sequence (P08913 1-465): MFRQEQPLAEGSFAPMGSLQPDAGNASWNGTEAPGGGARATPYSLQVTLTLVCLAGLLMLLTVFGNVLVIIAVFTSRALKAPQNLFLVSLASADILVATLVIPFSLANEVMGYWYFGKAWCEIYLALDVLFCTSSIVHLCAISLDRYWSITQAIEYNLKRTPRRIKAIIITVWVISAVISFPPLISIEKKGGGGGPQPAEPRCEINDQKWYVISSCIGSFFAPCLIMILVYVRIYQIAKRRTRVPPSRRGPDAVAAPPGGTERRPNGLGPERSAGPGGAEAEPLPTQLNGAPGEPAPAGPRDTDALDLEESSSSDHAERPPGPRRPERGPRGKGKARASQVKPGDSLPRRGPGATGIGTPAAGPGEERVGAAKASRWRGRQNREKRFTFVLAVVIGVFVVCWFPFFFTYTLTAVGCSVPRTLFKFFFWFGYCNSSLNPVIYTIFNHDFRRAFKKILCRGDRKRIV
Method in brief: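 Percent inhibition of specific [3H]MK-912 (1 nM) binding measured by filtration counting, compounds tested at ≤1 μM in 1% DMSO. Receptor: human α2A from Sf9 cells; incubation 60 min, 25 °C, pH 7.4; 10 μM WB-4101 defined nonspecific binding.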

inhibition at 0.1 µM [1] [%] | inhibition at 0.1 µM [2] [%] | inhibition at 0.1 µM [3] [%] | inhibition at 0.1 µM [4] [%] | Structure (SMILES)
1 | 10 | -1 | 25 | Cc1ccc2c(c1)c1c(n2-c2cccc(-c3ccc(C)s3)c2)CCN(C)C1 [Compound No. 64, 2,8-dimethyl-5-(3-(5-methylthiophen-2-yl)phenyl)-2,3,4,5-tetrahydro-1H-pyrido[4,3-b]indole]
80 | 73 | 65 | 72 | Cc1ccc2c(c1)c1c(n2-c2ccccc2-c2ccnn2C)CCN(C)C1 [Compound 32]
91 | 47 | 65 | 77 | Cc1ccc2c(c1)c1c(n2-c2ccccc2-c2ccc(C)nc2)CCN(C)C1 [Compound 59, 2,8-dimethyl-5-(2-(6-methylpyridin-3-yl)phenyl)-2,3,4,5-tetrahydro-1H-pyrido[4,3-b]indole]
94 | 64 | 83 | 16 | CNC(=O)c1ccc(-c2cscc2-n2c3c(c4cc(C)ccc42)CN(C)CC3)cn1 [Compound No. 73]
11 | 6 | -1 | 7 | Cc1cc(C)c2c(c1)c1c(n2-c2cccc(-c3ccncc3)c2)CCN(C)C1 [Compound 57, 2,6,8-trimethyl-5-(3-(pyridin-4-yl)phenyl)-2,3,4,5-tetrahydro-1H-pyrido[4,3-b]indole]
16 | 8 | 16 | -1 | Cc1ccc2c(c1)c1c(n2-c2cccs2)CCN(C)C1 [Compound 16, 2,8-dimethyl-5-thiophen-2-yl-2,3,4,5-tetrahydro-1H-pyrido[4,3-b]indole]
80 | 36 | 20 | 15 | Cc1ccc2c(c1)c1c(n2-c2cnc3ccccc3c2)CCN(C)C1 [Compound No. 88, 2,8-dimethyl-5-quinolin-3-yl-2,3,4,5-tetrahydro-1H-pyrido[4,3-b]indole]
86 | 32 | 17 | 42 | Cc1ccc2c(c1)c1c(n2-c2cscc2-c2cnn(C)c2)CCN(C)C1 [Compound 30]
85 | 61 | 63 | 88 | Cc1ccc2c(c1)c1c(n2-c2ccccc2-c2ccc(F)cc2)CCN(C)C1 [Compound 10, 5-(4′-fluoro-biphenyl-2-yl)-2,8-dimethyl-2,3,4,5-tetrahydro-1H-pyrido[4,3-b]indole]
7 | 10 | 12 | 27 | Cc1ccc2c(c1)c1c(n2-c2cccc(-c3cc4ccccc4s3)c2)CCN(C)C1 [Compound 51, 5-(3-(benzo[b]thiophen-2-yl)phenyl)-2,8-dimethyl-2,3,4,5-tetrahydro-1H-pyrido[4,3-b]indole]
6 | 5 | 3 | 62 | Cc1cc(C)c2c(c1)c1c(n2-c2cccc3ncccc23)CCN(C)C1 [Compound 47]
60 | 22 | 13 | 8 | Cc1ccc2c(c1)c1c(n2-c2ccc3nc(C)ccc3c2)CCN(C)C1 [Compound No. 157, 2,8-dimethyl-5-(2-methyl-quinolin-6-yl)-2,3,4,5-tetrahydro-1H-pyrido[4,3-b]indole]
95 | 67 | 68 | 84 | Cc1ccc2c(c1)c1c(n2-c2cscc2-c2ccc(F)nc2)CCN(C)C1 [Compound 35]
1 | 16 | 18 | 28 | Cc1ccc2c(c1)c1c(n2-c2cscc2-c2cncc3ccccc23)CCN(C)C1 [Compound 34]
83 | 86 | 73 | 71 | Cc1ccc2c(c1)c1c(n2-c2ccc(-c3ccc(S(N)(=O)=O)cc3)cn2)CCN(C)C1 [Compound No. 145, 4-(6-(2,8-dimethyl-3,4-dihydro-1H-pyrido[4,3-b]indol-5(2H)-yl)pyridin-3-yl)benzenesulfonamide]
16 | 20 | 15 | 21 | CNC(=O)c1ccc(-c2cccc(-n3c4c(c5cc(C)ccc53)CN(C)CC4)c2)cn1 [Compound No. 75, 5-(3-(2,8-dimethyl-3,4-dihydro-1H-pyrido[4,3-b]indol-5(2H)-yl)phenyl)-N-methylpicolinamide]
89 | 66 | 87 | 11 | CNC(=O)c1ccc(-c2ccccc2-n2c3c(c4cc(C)ccc42)CN(C)CC3)cn1 [Compound No. 71, 5-(2-(2,8-dimethyl-3,4-dihydro-1H-pyrido[4,3-b]indol-5(2H)-yl)phenyl)-N-methylpicolinamide]
73 | 43 | 30 | 38 | Cc1ccc2c(c1)c1c(n2-c2ccc(-c3cnn(C)c3)cn2)CCN(C)C1 [Compound No. 134, 2,8-dimethyl-5-(5-(1-methyl-1H-pyrazol-4-yl)pyridin-2-yl)-2,3,4,5-tetrahydro-1H-pyrido[4,3-b]indole]

Source: patent publication US20140155384A1, “COMPOUNDS AND METHODS OF TREATING DIABETES” (Medivation Technologies, Inc., priority 2011, published 2014)
